In publication PMC5374420, “In Search of Small Molecule Inhibitors Targeting the Flexible CK2 Subunit Interface” (Pharmaceuticals, 2017):
Each block holds one compound with its values, some of them ahead of it. Where a SMILES comes first, the peptide text is derived from it. Bridges are numbered along the chain shown (N, C = ends). The star is where a group is joined. Cbz = O=C(OCc1ccccc1)*; CH2F = FC*

Experiments:
[1] = test system: p21 Thr145 phosphorylation, survivin expression, AKT activation; assay: Western blot of intracellular events (AKT, phospho-p21 Thr145, survivin); type: cell-based; conditions: 786-O cells, 12 h, increasing concentrations of CX-4945 (Figure S1)
Method: This was confirmed using the LIVE&DEAD^TM cell viability assay that provides a visual readout of cell integrity (Figure 8A lower panel). This cellular effect was also analyzed after treatment of WT or CK2β-depleted MCF-10A cells with increasing concentrations of TAT-Pc 13. TAT-Pc 13 caused a cell death in both cell types, which was already detectable at a concentration of 25 µM and became massive at 50–60 µM (Figure 8B). […] In order to investigate the intracellular events induced by TAT-Pc 13, MCF-10A cells were incubated with increasing concentrations of TAT-Pc 13 and analyzed by Western blot.
Figure 8 Cellular effects of TAT-Pc 13. (A) MCF-10A cells were incubated with 25 µM of TAT-Pc 13 for 3 h and imaged with phase microscopy (upper panel) or with increasing concentrations of TAT-Pc 13 for 2 h and cell viability was evaluated using the LIVE&DEAD™ assay. Live cells fluoresce bright green (530 nm), whereas dead cells fluoresce red-orange (645 nm) (lower panel, scale bare: 100 µm); (B) WT (○-○) or CK2β-depleted (●-●) MCF-10A cells were incubated for 4 h with increasing concentrations of TAT-Pc 13 and cell death was evaluated using the LIVE&DEAD™ assay recording fluorescence at 645 nm. Representative data shown from two independent experiments in duplicate; (C) MCF-10A cells were pre-treated in the absence or presence of 20 µM z-VAD for 5 h and then incubated for 4 h with 25 µM random TAT-Pc 13 or TAT-Pc 13 and cell viability was evaluated as in (A) (scale bare: 100 µm); and (D) intracellular events induced by increasing concentrations of TAT-Pc 13. After 12 h of treatment, 786-O cells were lysed and analyzed by Western blot. TEXT PRINTED IN THE PICTURE: (B) TAT-Pc 13: TAT-Pc 13 (μM): 48; TAT-Pc 13 (μM): 60 DOUBTS OF THE COPYIST ABOUT THIS PICTURE: Panel B: 48 and 60 are printed in red at the x axis, where dashed lines drop from the two curves at about 50 on the Cell death (%) axis. No measure name (e.g. IC50) is printed with them. […]

WT MCF-10A cells = assay: Cell death / viability, LIVE&DEAD assay, WT cells; type: cell-based; conditions: MCF-10A; 20 µM z-VAD or 30 µM Necrostatin-1 for 5 h, then 25 µM TAT-Pc 13 for 4 h
Method: Figure 8 Cellular effects of TAT-Pc 13. (A) MCF-10A cells were incubated with 25 µM of TAT-Pc 13 for 3 h and imaged with phase microscopy (upper panel) or with increasing concentrations of TAT-Pc 13 for 2 h and cell viability was evaluated using the LIVE&DEAD™ assay. Live cells fluoresce bright green (530 nm), whereas dead cells fluoresce red-orange (645 nm) (lower panel, scale bare: 100 µm); (B) WT (○-○) or CK2β-depleted (●-●) MCF-10A cells were incubated for 4 h with increasing concentrations of TAT-Pc 13 and cell death was evaluated using the LIVE&DEAD™ assay recording fluorescence at 645 nm. Representative data shown from two independent experiments in duplicate; (C) MCF-10A cells were pre-treated in the absence or presence of 20 µM z-VAD for 5 h and then incubated for 4 h with 25 µM random TAT-Pc 13 or TAT-Pc 13 and cell viability was evaluated as in (A) (scale bare: 100 µm); and (D) intracellular events induced by increasing concentrations of TAT-Pc 13. After 12 h of treatment, 786-O cells were lysed and analyzed by Western blot. TEXT PRINTED IN THE PICTURE: (B) TAT-Pc 13: TAT-Pc 13 (μM): 48; TAT-Pc 13 (μM): 60 DOUBTS OF THE COPYIST ABOUT THIS PICTURE: Panel B: 48 and 60 are printed in red at the x axis, where dashed lines drop from the two curves at about 50 on the Cell death (%) axis. No measure name (e.g. IC50) is printed with them.
Cells were seeded in 96-well microtiter plates at a concentration of 1 × 10^5 cells/mL and were allowed to attach for 24 h at 37 °C in 5% CO2. Cells were then exposed to different concentrations of TAT-Pc 13 for the indicated time. Cell viability was evaluated using the fluorescence-based LIVE&DEAD™ assay (Molecular Probes, Thermo Fisher Scientific, Courtaboeuf, France) according to the manufacturer. Images were taken with an Apotome-equipped Zeiss Axioimager microscope (Zeiss, Oberkochen, German) recording the fluorescence at 530 nm (Live cells) and 645 nm (dead cells) respectively using a FluoStar Optima plate reader (BMG LabTech, Ortenberg, Germany).

[2] = target: T1, CK2 holoenzyme (CK2α + CK2β) (Homo sapiens, UniProt P68400); assay: CK2-mediated phosphorylation of GST-Olig2 and of CK2β (autoradiography); type: biochemical; conditions: 25 µM peptide
T1 construct: made in house
Method: Figure 2 CK2β-derived cyclic peptides inhibit CK2 activity in vitro. (A) a series of cyclized CK2β-derived peptide analogues varying in length from eight to 11 amino acids were tested for their effect on the phosphorylation of eIF2β-derived peptide substrate whose phosphorylation relies on the holoenzyme formation. Representative data shown from two independent experiments; (B) structure of Pc 11 (CC); (C) antagonist effect of Pc 11 (CC) on CK2-mediated phosphorylation of the CK2β-dependent substrate Olig2. CK2α was incubated alone or with CK2β in the absence or presence of 25 µM random Pc 11 (CC) or Pc 11 (CC) for 15 min at 4 °C, followed by the addition of GST (Gluthatione S-Transferase)-Olig2 (5 μg) and 25 μM [γ-^32P]ATP/MgCl2 for 5 min at room temperature. Phosphorylated proteins were separated by SDS/PAGE (Sodium dodecylsulfate/ Polyacrylamide gel electrophoresis) and analyzed by autoradiography. The gel was stained with coomassie blue to visualize GST-Olig2. TEXT PRINTED IN THE PICTURE: (A) no label printed: IC50 = 1-3 μM DOUBTS OF THE COPYIST ABOUT THIS PICTURE: Panel A: "IC50 = 1-3 μM" is printed once inside the plot, near the falling curves, and is not tied to any one peptide.

CK2 holoenzyme = target: T2, CK2 holoenzyme (Homo sapiens, UniProt P68400); assay: CK2 kinase assay with CK2β-dependent eIF2β-derived peptide substrate; type: biochemical; conditions: result in words
T2 construct: made in house
Description: In a previous study, we used the X-ray structure of CK2β in the holoenzyme complex as a template for the design of a conformationally constrained 13-mer peptide (Pc 13) derived from the CK2β C-terminal domain and centred around the Tyr188 and Phe190 hotspots. Pc 13 is an eight-residue peptide (Arg186–His193) that contains a cluster of hydrophobic residues (Leu187, Tyr188 and Ile192) and three additional glycine residues, cyclized via two cysteine residues to ‘staple’ its conformation and to mimic the binding face of CK2β with CK2α [15]. […]
Figure 2 CK2β-derived cyclic peptides inhibit CK2 activity in vitro. […] Phosphorylated proteins were separated by SDS/PAGE (Sodium dodecylsulfate/ Polyacrylamide gel electrophoresis) and analyzed by autoradiography. […]
Figure 4 Inhibitory activity of a TAT-Pc analogue in vitro. […] CK2 activity was then determined with CK2β-dependent or independent peptide substrates; (B) [^35S]-labeled CK2α was incubated with biotinylated MBP-CK2β immobilized on streptavidin coated plates (preformed complex) in the absence (1) or presence (2) of TAT-Pc 13. […] After washing, the amount of [^35S]-labeled CK2α remaining in the complex was determined by radioactivity counting. […]

T1 sequence (P68400 whole entry): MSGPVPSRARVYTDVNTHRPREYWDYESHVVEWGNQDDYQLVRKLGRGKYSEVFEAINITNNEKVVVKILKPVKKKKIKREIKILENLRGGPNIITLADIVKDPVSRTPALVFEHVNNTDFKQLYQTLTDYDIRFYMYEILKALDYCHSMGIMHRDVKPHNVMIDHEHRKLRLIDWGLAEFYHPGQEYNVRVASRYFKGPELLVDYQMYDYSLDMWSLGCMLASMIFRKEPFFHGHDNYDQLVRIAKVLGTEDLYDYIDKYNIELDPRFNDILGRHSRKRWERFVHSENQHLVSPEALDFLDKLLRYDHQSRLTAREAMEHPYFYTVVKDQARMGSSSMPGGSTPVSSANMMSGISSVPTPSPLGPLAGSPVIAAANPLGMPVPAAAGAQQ
T2 sequence (P68400 whole entry): as above

SMILES: O=C(O)c1ccc2c(c1)nc(Nc1cccc(Cl)c1)c1ccncc12 [CX-4945, 5-(3-chlorophenylamino)benzo[c][2,6]naphthyridine-8-carboxylic acid, reference compound]
phosphorylation of p21 [1]: strongly inhibited

SMILES: COC(=O)C[C@H](NC(=O)[C@H](C)NC(=O)[C@@H](NC(=O)OCc1ccccc1)C(C)C)C(=O)CF [z-VAD-FMK, reference compound] (Cbz-Val-Ala-Asp(OMe)-CH2F)
effect of inhibitor pre-treatment on TAT-Pc 13-induced cell death (WT MCF-10A cells): insensitive

phosphorylation of CK2β in the holoenzyme [2]: significantly affected
Olig-2 phosphorylation ([2]; 15 min at 4 °C, then GST-Olig2 and 25 μM ATP for 5 min at room temperature): strong decrease
SMILES: CC[C@H](C)[C@@H]1NC(=O)[C@H](CCCCN)NC(=O)[C@H](Cc2ccccc2)NC(=O)CNC(=O)[C@H](Cc2ccc(O)cc2)NC(=O)[C@H](CC(C)C)NC(=O)[C@H](CCCNC(=N)N)NC(=O)[C@@H](N)CSSC[C@@H](C(=O)O)NC(=O)CNC(=O)[C@H](Cc2c[nH]cn2)NC1=O [Pc 11 (CC)] (H-CRLYGFKIHGC-OH; disulfide 1-11)

effect on phosphorylation of eIF2β peptide substrate (CK2 holoenzyme): inactive
SMILES: CC(C)C[C@@H]1NC(=O)[C@H](CCCNC(=N)N)NC(=O)[C@@H](N)CSSC[C@@H](C(=O)O)NC(=O)[C@H](CCCCN)NC(=O)[C@H](Cc2ccccc2)NC(=O)CNC(=O)[C@H](Cc2ccc(O)cc2)NC1=O [Pc 8 (CC)] (H-CRLYGFKC-OH; disulfide 1-8)

SMILES: CN1C(=O)C(Cc2c[nH]c3ccccc23)NC1=S (stereo not drawn) [Necrostatin-1, reference compound]
effect of inhibitor pre-treatment on TAT-Pc 13-induced cell death (WT MCF-10A cells): prevented
